Measurements reported in patent US7795495B2, “Transgenic mice for screening for inhibitors of protein aggregation and methods for making and using them” (The Regents of the University of California, priority 2000, dated 2010).

What was measured:
[1] = molecular target: SDS-resistant complexes of α-synuclein and Aβ1-40 (Homo sapiens, UniProt P37840); test: Formation of SDS-resistant complexes of α-synuclein and Aβ1-40, immunoblotting analysis; type: biochemical; details: 10 µM α-synuclein, 10 µM Aβ1-40, 100 µM peptide
Excerpt: Those in the art generally agree that β-Synuclein blocks Aβ proto-fibril formation by one of two possible mechanistic pathways. In the first pathway, inhibition is facilitated through indirectly blocking NAC or α-synuclein interaction with Aβ. In the second possible pathway, inhibition is facilitated by the direct blocking Aβ aggregation.

B103 cells = B103 cells overexpressing synuclein: cell adhesion and neurite extension; type: cell-based; details: catalase 100 µg/ml, superoxide dismutase 100 U/ml, vitamin E 500 µM
[2] = system: GT1-7 murine hypothalamic neuronal cells; test: GT1-7 cells overexpressing α-synuclein: mitochondrial alterations and oxidative stress; type: cell-based
Experimental: To determine if the overexpression of α-synuclein causes dysregulated neuronal function, GT1-7 cells were transfected with the mammalian expression vector pCR3.1 (Invitrogen) using standard transfection protocols well known in the art. The cells were transfected with or without insertion of murine α-synuclein cDNA. The resulting expression of α-synuclein was measured at both mRNA and protein levels using RPA and immunoblotting analysis. Clones which either overexpressed or underexpressed α-synuclein (via transfection with an anti-sense plasmid) were selected and analyzed. […] These alterations were ameliorated by pretreatment with the anti-oxidant, vitamin E. Furthermore, α-synuclein overexpression in GT1-7 cells results in the formation of α-synuclein—immunopositive inclusion-like structures.

B103 neuroblastoma cells = test: Aβ cytotoxicity in B103 neuroblastoma cells; type: cell-based; details: for effect on Aβ cytotoxicity / cell survival: Aβ 20 µM, serum-free, three days, protein 20 µM
Experimental: When B103 neuroblastoma cells were incubated with Aβ (20 µM) under serum-free conditions for three days, dead cells become prominent due to the cytotoxic effects of Aβ.

[3] = Aggregation of synuclein proteins under high temperature conditions (SDS-PAGE/Coomassie brilliant blue); type: physicochemical; details: 20 µM protein, pH 6.9, 65 °C, 0, 8 and 20 hours
Experimental: Each of the protein samples (20 µM) was incubated under pH 6.9, 65° C. conditions for 0, 8, and 20 hours. The incubated samples were run over SDS-PAGE and the resulting protein bands visualized by Coomassie/brilliant blue staining (FIG. 2).

α-synuclein tg mice = test: Bigenic crosses: β-synuclein overexpression in α-synuclein tg mice (rotorod, neuropathological analysis); type: in vivo
Excerpt: Motor deficits in Lewy body disease are associated with degeneration of the nigral dopaminergic neurons projecting to the striatum. To determine if loss of dopaminergic input to the striatum in transgenic mice is associated with Parkinson's disease related neurological impairments, mice were examined with a rotorod test, a behavioral testing mechanism well known to those familiar with such procedures. […] The dopaminergic and behavioral deficits were detected only in the high expression line and not in low-expression lines. […] This may lead to the conclusion that a critical threshold of α-synuclein accumulation is required for dopaminergic and behavioral deficits to become detectable. None-the-less, the evaluation of such neurophysiological characteristics, as previously described, are well known to those of skill in such evaluations. As such, it is apparent that the increased expression of wild-type α-synuclein plays a key role in the pathogenesis of neurodegenerative conditions associated with amyloidogenesis.

## 51-60 (Seq ID #11): synthetic peptide, amino acids 51-61 of β-synuclein: Gly Val Ala Ser Val Ala Glu Lys Thr Lys Glu (GVASVAEKTKE; listed as Homo sapiens)
[1]
  suppression of the formation of SDS-resistant complexes of α-synuclein and Aβ1-40: significant suppression
[1]; listed as a.a. 51-61 of β-synuclein
  suppression of the formation of SDS-resistant complexes of α-synuclein and Aβ1-40: suppression

## catalase
B103 cells
  effect of anti-oxidants on altered adhesion and neurite outgrowth of synuclein overexpressing cells: little effect

## superoxide dismutase
B103 cells
  effect of anti-oxidants on altered adhesion and neurite outgrowth of synuclein overexpressing cells: little effect

## vitamin E
[2]
  effect of pretreatment on alterations caused by α-synuclein overexpression (mitochondrial alterations, free radicals, glutathione, gonadotropin-releasing hormone secretion): ameliorated
B103 cells
  effect of anti-oxidants on altered adhesion and neurite outgrowth of synuclein overexpressing cells: little effect

## α-synuclein [reference compound]
B103 neuroblastoma cells
  effect on Aβ cytotoxicity / cell survival: detrimental to cell survival
  effect on Aβ toxicity in neuroblastoma cell (summary statement): enhances Aβ toxicity
[3]
  formation of aggregates / amyloid-like fibrils under high temperature conditions: positive aggregation

## β-synuclein
B103 neuroblastoma cells
  effect on Aβ cytotoxicity / cell survival: blocked the effects of this cytotoxicity
  effect on Aβ toxicity in neuroblastoma cell (summary statement): protective
[3]
  formation of aggregates / amyloid-like fibrils under high temperature conditions: fails to show any formation of aggregates
α-synuclein tg mice; β-synuclein overexpression in α-synuclein tg mice (bigenic crosses), FIG. 14
  motor deficits, rotorod performance: reduced the motor deficits
α-synuclein tg mice; β-synuclein overexpression in α-synuclein tg mice, FIG. 16
  neuronal loss: reduction neuronal loss
α-synuclein tg mice; β-synuclein overexpression in α-synuclein tg mice, neuropathological analysis, FIG. 15
  neuronal inclusions: reduction of neuronal inclusions

## β-synuclein .delta.1: β-synuclein mutant with amino acids 72-83 of NAC inserted by site-directed mutagenesis
[3]
  formation of aggregates / amyloid-like fibrils under high temperature conditions: aggregated to form amyloid-like fibrils

## β-synuclein .delta.2: β-synuclein mutant with amino acids 63-72 of NAC N-terminal inserted by site-directed mutagenesis
[3]
  formation of aggregates / amyloid-like fibrils under high temperature conditions: aggregated to form amyloid-like fibrils
